Literature values, collected in patent US6753016B2, “Preservation of wood products” (Rohm and Haas Company, priority 2001, dated 2004).

Conditions: aqueous treatment of wood surfaces; compared to conventional chromium(VI) treatment

[Cl][Fe]([Cl])[Cl] [ferric chloride]
protective effect on treated wood in weathering: does not have a protective effect
